The values below come from patent US6514959B2 (priority 1994, dated 2003).

The subject of this test is Plasmopara viticola. Description: Action against Plasmopara viticola on vines (preventive leaf spray, Colby evaluation). The class given is in vivo. The following applies: for O Observed action: evaluation after 7 days. An excerpt:
Fungicides have a synergistic effect whenever the fungicidal action of the active ingredient combination is greater than the sum of the actions of the active ingredients when applied individually.
The action E to be expected for a given active ingredient combination, for example of two fungicides, obeys the so-called COLBY formula and can be calculated as follows (COLBY, L. R. “Calculating synergistic and antagonistic responses of herbicide combinations”. Weeds 15, pages 20-22, 1967) (LIMPEL et al., […] “Weeds control by . . . certain combinations”. Proc. NEWCL, Vol. 16, pp. 48-53):
(mg a.i./liter=milligrams of active ingredient per liter or a multiple thereof) X=% action by fungicide I at p mg a.i./liter
Y=% action by fungicide II at q mg a.i./liter
E=the expected action of fungicides I+II at a rate of application of p+q mg a.i./liter (additive action), then according to Colby: [formula]
If the action (O) actually observed is greater than the expected action, then the action of the combination is superadditive, i.e. there is a synergistic effect.
1) Action Against Plasmopara viticola on Vines
Small vine plants of the variety “Gutedel” are each grown in a plant-pot (diameter=6 cm) under greenhouse conditions and are sprayed in the two-leaf stage with an active ingredient mixture prepared from an emulsifiable concentrate. The following concentrations of active ingredient are each applied to four plants: […]
metalaxyl racemate: 2 mg and 6 mg a.i./liter;
R-metalaxyl (100%): 0.06 mg and 0.6 mg a.i./liter; mancozeb: 2 mg and 6 mg a.i./liter.
These dilutions are prepared in demineralised water immediately before the leaves are sprayed. In order to eliminate the effect of the gas phase of the metalaxyl in the vicinity, all the plants are separated from one another laterally by means of transparent plastics films and are kept in the dark for one day at 20-22° C. and about 100% relative humidity.
The entire surface of the leaves of the plants is then uniformly sprayed to drip point with a freshly prepared sporangia suspension (120 000/ml) of a strain of Plasmopara viticola that is sensitive to metalaxyl. The plants are then kept at 20-22° C. and about 100% relative humidity for 7 days under artificial daylight of 16 hours' duration. Evaluation of the infestation is then carried out. The Tables show in each case the average of four parallel sprayings. The expected action in the case of mixtures is calculated according to COLBY.
Level of action of racemic metalaxyl and R-metalaxyl in admixture with residual component mancozeb

Setting [1] is: single active ingredient 2 mg a.i./l, vines Gutedel, infection 1 day after spraying, average of four.
Setting [2] is: single active ingredient 6 mg a.i./l, vines.

As to `COCC(=O)N(c1c(C)cccc1C)[C@H](C)C(=O)OC` (single isomer, unassigned) [R-enantiomer of metalaxyl, R-metalaxyl], the “improvement of action when the R-enantiomer is used instead of racemic metalaxyl” value (in admixture with 2 mg or 6 mg of mancozeb, 0.06 mg R-metalaxyl corresponds to 2 mg racemic metalaxyl) is reported as “about 30 fold”. The “O Observed action” value is, setting by setting: (single active ingredient 0.06 mg a.i./l, vines) 12%; (single active ingredient 0.6 mg a.i./l, vines) 18%.
On to `COCC(=O)N(c1c(C)cccc1C)C(C)C(=O)OC` (stereo not shown) [Metalaxyl, metalaxyl], for which the “O Observed action” value amounted to 12% under setting [1] and 24% under setting [2].
Take mancozeb: the “O Observed action” value under setting [1] was found to be 0% and the “O Observed action” value under setting [2] is 20%.
